The values below come from PMC4201456, “Cytoxicity and Apoptotic Mechanism of Ruthenium(II) Amino Acid Complexes in Sarcoma-180 Tumor Cells” (PLoS ONE, 2014).

The test system of one test is caspase 8. Briefly: Real-time RT-PCR gene expression, caspase 8. Format: cell-based, murine. Particulars: S180 cells, 40 µM, 6 h; p>0.05. The method, then:
(§1) The S180 cells were treated with 40 µM complex 2 for 6 h. Total RNA was extracted with Trizol reagent (Sigma-Aldrich, USA) following the manufacturer's protocol. Total RNA (2.0 µg) was used to produce complementary DNA (cDNA) with random primers (Applied Biosystems, USA) in a 20 µL reaction mixture according to the manufacturer's protocol.
(§2) Real-time PCR was carried out using a Line Gene K (Bioer Technology) instrument. Real-time PCR reactions were carried out in a 20 µL reaction mixture, including 2 µL of cDNA, 10 µL of SYBR Green PCR Master Mix (LGC Biotechnology, UK), and 2.0 µL of 400 nM forward and reverse primers. The PCR program was initiated at 95°C for 15 min followed by 40 cycles of 95°C for 15 s, 55°C for 15 s, and 72°C for 30 s. The data were analyzed according to the comparative Ct method and were normalized to the β-actin reference gene expression in each sample.

A further test concerns pBR322 plasmid DNA. Briefly: Atomic force microscopy of plasmid DNA. The format is binding. To be noted: incubated 24 h at 37°C. The procedure: For the atomic force microscopy (TMAFM) experiment, the pBR322 plasmid was heated at 60°C for 10 minutes to obtain the OC form. The concentration of the stock solution was 1 mg/mL in HEPES buffer (4 mM HEPES (pH 7.4) and 2 mM MgCl2. Each sample contained 1 µL of pBR322 plasmid at a concentration of 0.25 µg/µL in a final volume of 40 µL. The amount of complex 2 added is expressed as ri. AFM samples were prepared by casting a 3 µL drop of test solution onto freshly cleaved muscovite green mica disks as the support. The drop was allowed to stand undisturbed for 3 minutes to favor the adsorbate-substrate interaction. Each DNA-laden disk was rinsed with Milli-Q water and was blown dry with clean compressed argon gas directed normal to the disk surface. The samples were stored over silica prior to AFM imaging. All AFM observations were made with a Nanoscope III Multimode AFM (Digital Instruments, Santa Barbara, CA). Nanocrystalline Si cantilevers ([…] in length) with an average spring constant of 50 N/m terminating in conical-shaped Si probe tips (10 nm apical radius and cone angle of 35°) were utilized. High-resolution topographic AFM images of 2×2 µm areas of different specimens were obtained in air at room temperature (relative humidity <40%). The AFM was operated in intermittent contact mode at a rate of 1–3 Hz.

The subject of test [1] is S180 cells. The test can be described thus: Mitochondrial membrane potential, JC-1 flow cytometry. The format is cell-based, murine. Particulars: 24 h; for percentage of cells with depolarized mitochondria: control 11.5%; for percentage of cells showing red fluorescence (upper-right quadrant): control 88.5%. The procedure: The effect of complex 2 on the mitochondrial membrane potential (ΔΨm) was measured using JC-1 dye (BD Biosciences) by flow cytometry according to the manufacturer's instructions. Briefly, 3.0×10^5 S180 cells were treated with complex 2 (40 µM and 60 µM) for 24 h. After incubation, the cells were harvested and washed with PBS. The cells were then incubated with JC-1 dye (BD Biosciences) for 15 min at 37°C in the dark. The stained cells were washed, resuspended in assay buffer, and immediately analyzed by flow cytometry. The data were analyzed using the Cell Quest software.
For orientation: In flow cytometry, cells or beads pass a laser one at a time.

The subject of test [2] is S180 cells. Briefly: Cell cycle analysis by PI flow cytometry. Format: cell-based, murine. The procedure:
The S180 cells were treated with complex 2 (40 µM and 60 µM) for 24 h and 48 h. Briefly, 5.0×10^5 cells were harvested by centrifugation, washed with phosphate-buffered saline (PBS), fixed with 70% (v/v) cold ethanol and stored overnight at −20°C. The fixed cells were washed with PBS and incubated with propidium iodide (PI; Sigma-Aldrich) containing 0.05% RNase. The samples were incubated at 4°C in the dark and analyzed by flow cytometry (FACS Calibur, BD Biosciences). The percentage of cells in the G0/G1, S, G2/M and sub-G1 phases was analyzed using ModFit software.

A further test has as its system Bak protein. Briefly: Western blot analysis of Bak protein. Format: cell-based, murine. Particulars: S180 cells, 60 µM, 24 h; normalized to β-actin; control 5.08. The procedure: The S180 cells were treated with 40 µM and 60 µM complex 2 for 24 h. Untreated cells maintained in media only were used as the control. After treatment, the cells were washed with PBS and lysed with lysis buffer (Invitrogen). The samples were stored at −20°C until further analysis. The protein concentrations of the resulting lysates were determined using the Bradford assay. A total of 70 µg of protein extract was mixed with Laemmli loading buffer and subjected to 12% SDS-PAGE at 100 V for 2 h, followed by electroblotting to nitrocellulose membranes (0.45 µm) (Bio-Rad Laboratories, Inc.) at 400 mA for 1.5 h. […] The membranes were washed in TBS-T, incubated with an HRP-conjugated IgG secondary antibody (Santa Cruz Biotechnology Inc., 1∶1000 dilution) for 1 h, and washed with TBS-T. The immunoreactive bands were detected using an ECL western blotting substrate (Super Signal West Pico Substrate, Thermo Scientific), and the ECL signals were captured using a CCD camera (ImageQuant LAS 4000 mini; GE Healthcare). The optical density of the target protein bands was measured using IMAGE J software downloaded from the NIH website (http://rsb.info.nih.gov.ij/) to compare the protein levels. […]
In general terms: A western blot detects proteins with antibodies after separation by electrophoresis.

In another test the test system is caspase-3. The test can be described thus: Caspase activity colorimetric assay (DEVD-pNA). Particulars: S180 cells, 24 h, control 100%. The format is cell-based, murine. The method, then: Direct measurement of the activity of caspases 3, 8, and 9 were performed using the ApoTarget Caspase 3, 8, and 9 Protease Assay (Invitrogen) according to the manufacturer's recommendations. After treatment with complex 2 (40 µM and 60 µM) for 24 h, the cells were lysed with chilled cell lysis buffer. The protein concentration was then measured using the BSA Protein Assay Kit (BioRad). An aliquot of the protein extract (75 µg) was mixed with 50 µL of 2X reaction buffer supplemented with 10 mM DTT and the substrates of DEVD-pNA (caspase-3), IETD-pNA (caspase-8), or LEHD-pNA (caspase-9). The mixtures were then incubated for 2 h at 37°C. Subsequently, the formation of p-nitroanilide in the samples was measured using an ELISA microplate reader at 405 nm. The increases in the activities of caspase-3, caspase-8, and caspase-9 were determined by comparing the results with the control.

In the next test the test system is caspase 3. Briefly: Real-time RT-PCR gene expression, caspase 3. Particulars: S180 cells, 40 µM, 6 h; normalized to β-actin. Format: cell-based, murine. The method, then:
as §1, §2
In general terms: In qPCR the cycle at which signal appears reflects the starting amount.

On to `F[P-](F)(F)(F)(F)F.NCC(=O)[O-].[Ru+2].c1ccc(-c2ccccn2)nc1.c1ccc(P(CCCCP(c2ccccc2)c2ccccc2)c2ccccc2)cc1` [Complex 2, [Ru(gly)(bipy)(dppb)]PF6], for which the “expression level of caspase 8 compared with control” value with caspase 8 is given as “remained unchanged”. The “interaction with pBR322 plasmid DNA (AFM images)” value with pBR322 plasmid DNA is recorded as “did not covalently bind to DNA bases or intercalate between bases”. Also, the “percentage of cells with depolarized mitochondria” value in the test with S180 cells [1] (40 µM) worked out at 45.2%; in the test on S180 cells [1] (60 µM), 52.6%. The “percentage of cells showing red fluorescence (upper-right quadrant)” value came to 54.3% in the test with S180 cells [1] (40 µM) and 47.1% in the test with S180 cells [1] (60 µM). Besides, the “fraction of G0/G1 cells” value was found to be 61.07% in the test on S180 cells [2] (40 µM, 24 h, control 23.6%); 59.94% in the test with S180 cells [2] (40 µM, 48 h, control 41.55%); 56.09% in the test with S180 cells [2] (60 µM, 24 h, control 23.6%); 59.86% in the test with S180 cells [2] (60 µM, 48 h, control 41.55%). For the same compound, the “expression level of the Bak protein” value with Bak protein is recorded as 9.40 fold. Besides, the “activity of caspase-3” value came to 136.05% in the test with caspase-3 (40 µM) and 170.24% with caspase-3 (60 µM). In addition, the “expression level of caspase 3 compared to control” value in the test with caspase 3 was found to be 2.55 fold.
